For twelve molecules, IC50 results are on record in US9487490B2, “3-cyclohexenyl and cyclohexyl substituted indole and indazole compounds as RORgammaT inhibitors and uses thereof” (Merck Sharp & Dohme Corp., priority 2012, dated 2016).

One may read the IC50 as the midpoint of a concentration-inhibition curve.

Chain of human RORgammaT-Ligand Binding Domain (LBD) (P51449 269-508): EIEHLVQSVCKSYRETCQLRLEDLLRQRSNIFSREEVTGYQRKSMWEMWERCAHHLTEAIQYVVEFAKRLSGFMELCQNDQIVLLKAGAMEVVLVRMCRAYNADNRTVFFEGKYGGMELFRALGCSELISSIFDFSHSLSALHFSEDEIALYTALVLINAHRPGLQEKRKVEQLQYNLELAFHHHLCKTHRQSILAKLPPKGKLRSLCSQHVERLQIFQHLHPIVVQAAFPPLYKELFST

One assay addresses human RORgammaT-Ligand Binding Domain (LBD) (Homo sapiens (Human), UniProt P51449). As to the kind of experiment: RORγ-Ligand Binding Domain TR-FRET assay (co-activator peptide SRC1_2 recruitment). It is filed as biochemical. The following applies: Fret IC50 (nM), HIS-tagged RORγ-LBD 3 nM, biotinylated SRC1 LXXLL peptide 100 nM, incubated overnight at 4° C., 665 nm/615 nm signal quotient. The source says:
Activation of RORgammaT activity can be measured using, e.g., biochemical TR-FRET assay. In such an assay, interaction of cofactor-derived peptides with human RORgammaT-Ligand Binding Domain (LBD) can be measured.
To identify novel antagonists of RORgammaT, an assay was developed which employs the interaction of RORgammaT with its co-activator peptide SRC1_2. […] The RORγ-Ligand Binding Domain TR-FRET Assay was run according to the following protocol.
HIS-tagged RORγ-LBD protein was expressed in SF9 cells using a baculovirus expression system. The RORγ-LBD protein was purified by glutathione sepharose chromatography. Separately, SF9 cells not expressing any recombinant protein were lysed and the lysate was added to the purified RORγ-LBD at 0.25 μl lysate (from 10,000 SF9 cells)/nM purified protein. The mixture was then diluted in assay buffer (50 mM Tris pH 7.0, 50 mM KCl, 1 mM EDTA, 0.1 mM DTT) to obtain RORγ-LBD final concentration of 3 nM in 384-well assay plate.
Compounds to be tested were injected to the assay plate using Acoustic Droplet Ejection technology by Echo 550 liquid handler (Labcyte, Calif.).
Background: TR-FRET usually uses a lanthanide donor and a delayed reading to cut background.
For the molecule `CC1(C)CC(c2nn(C(=O)c3c(Cl)cccc3C(F)(F)F)c3cccc(F)c23)=CCC1C(=O)O` (racemic) [Example 10B, (R and S) 4-(1-(2-chloro-6-(trifluoromethyl)benzoyl)-4-fluoro-1H-indazol-3-yl)-6,6-dimethylcyclohex-3-enecarboxylic acid], the IC50 came out at 96 nM.

Still in this assay, the particulars now being: HIS-tagged RORγ-LBD 3 nM, biotinylated SRC1 LXXLL peptide 100 nM, incubated overnight at 4° C., 665 nm/615 nm signal quotient; read-out: Fret IC50.
For the molecule `C[C@]1(C(=O)O)CC[C@H](c2nn(C(=O)c3c(Cl)cccc3C(F)(F)F)c3cccc(F)c32)CC1` [Example 9A, (trans)-4-(1-(2-chloro-6-(trifluoromethyl)benzoyl)-4-fluoro-1H-indazol-3-yl)-1-methylcyclohexanecarboxylic acid], the IC50 turned out to be 50 nM.
Consider `O=C(O)C1CC=C(c2cn(C(=O)c3c(Cl)cccc3C(F)(F)F)c3cccc(F)c23)CC1` (stereo not drawn) [Example 5A, 4-(1-(2-chloro-6-(trifluoromethyl)benzoyl)-4-fluoro-1H-indol-3-yl)cyclohex-3-enecarboxylic acid], for which the IC50 is 4 nM.
For `O=C(O)C1CC=C(c2nn(C(=O)c3c(Cl)cccc3C(F)(F)F)c3cc(C(=O)N4CC(O)C4)ccc23)CC1` (stereo not drawn) [Example 4W, 4-(1-(2-chloro-6-(trifluoromethyl)benzoyl)-6-(3-hydroxyazetidine-1-carbonyl)-1H-indazol-3-yl)cyclohex-3-enecarboxylic acid], the IC50 worked out at 3 nM.
Take `C[C@]1(c2nn(C(=O)c3c(Cl)cccc3C(F)(F)F)c3cccc(F)c32)CC[C@@H](C(=O)O)CC1` [Example 7C, (cis)-4-(1-(2-chloro-6-(trifluoromethyl)benzoyl)-4-fluoro-1H-indazol-3-yl)-4-methylcyclohexanecarboxylic acid]: the IC50 is 872 nM.
In the case of `COC1CN(C(=O)c2ccc3c(C4=CCC(C(=O)O)CC4)nn(C(=O)c4c(Cl)cccc4C4CC4)c3c2)C1` (single isomer, unassigned) [Example 2B, (S or R)-4-(1-(2-chloro-6-cyclopropylbenzoyl)-6-(3-methoxyazetidine-1-carbonyl)-1H-indazol-3-yl)cyclohex-3-enecarboxylic acid], the IC50 was found to be 2 nM.
`O=C(O)C1CC=C(c2nn(C(=O)c3c(Cl)cccc3C(F)(F)F)c3cc(C(=O)N4CCCC4)ccc23)CC1` (stereo not drawn) [Example 4F, 4-(1-(2-chloro-6-(trifluoromethyl)benzoyl)-6-(pyrrolidine-1-carbonyl)-1H-indazol-3-yl)cyclohex-3-enecarboxylic acid]: the IC50 is 30 nM.
For `C[C@@H]1CCCN1C(=O)c1ccc2c(C3=CCC(C(=O)O)CC3)nn(C(=O)c3c(Cl)cccc3C(F)(F)F)c2c1` (stereo partly drawn) [Example 4H, 4-(1-(2-chloro-6-(trifluoromethyl)benzoyl)-6-((R)-2-methylpyrrolidine-1-carbonyl)-1H-indazol-3-yl)cyclohex-3-enecarboxylic acid], the IC50 was 115 nM.
Same read-out and setting: in the case of `CC1C=C(c2nn(C(=O)c3c(Cl)cccc3C(F)(F)F)c3cccnc23)CCC1C(=O)O` (stereo not drawn) [Example 1G, 4-(1-(2-chloro-6-(trifluoromethyl)benzoyl)-1H-pyrazolo[4,3-b]pyridin-3-yl)-2-methylcyclohex-3-enecarboxylic acid] it was 182 nM; in that of `O=C(O)C1CC=C(c2nn(C(=O)c3c(Cl)cccc3C(F)(F)F)c3cc(C(=O)N4CC(F)C4)ccc23)CC1` (stereo not drawn) [Example 4X, 4-(1-(2-chloro-6-(trifluoromethyl)benzoyl)-6-(3-fluoroazetidine-1-carbonyl)-1H-indazol-3-yl)cyclohex-3-enecarboxylic acid], 3 nM.
For the molecule `O=C(O)C1CC=C(c2nn(C(=O)c3c(Cl)cccc3C(F)(F)F)c3cc(C(=O)N4CCOCC4)ccc23)CC1` (stereo not drawn) [Example 4L, 4-(1-(2-chloro-6-(trifluoromethyl)benzoyl)-6-(morpholine-4-carbonyl)-1H-indazol-3-yl)cyclohex-3-enecarboxylic acid], the IC50 turned out to be 36 nM.
As to `CC1(C(=O)O)CC=C(c2nn(C(=O)c3c(Cl)cccc3C(F)(F)F)c3cccnc23)CC1` (stereo not drawn) [Example 1F, 4-(1-(2-chloro-6-(trifluoromethyl)benzoyl)-1H-pyrazolo[4,3-b]pyridin-3-yl)-1-methylcyclohex-3-enecarboxylic acid], the IC50 amounted to 170 nM.
